Consider seven molecules from patent publication US20180037903A1, “METHODS AND MEANS FOR INCREASING STRESS TOLERANCE AND BIOMASS IN PLANTS” (THE UNIVERSITY COURT OF THE UNIVERSITY OF GLASGOW, priority 2013, published 2018).

B2: cYFP-HDA19 (C-terminal half of YFP fused to A. thaliana HISTONE DEACETYLASE 19) (enzyme, Arabidopsis thaliana, UniProt O22446 1-501, looked up)
chain: MDTGGNSLASGPDGVKRKVCYFYDPEVGNYYYGQGHPMKPHRIRMTHALLAHYGLLQHMQVLKPFPARDRDLCRFHADDYVSFLRSITPETQQDQIRQLKRFNVGEDCPVFDGLYSFCQTYAGGSVGGSVKLNHGLCDIAINWAGGLHHAKKCEASGFCYVNDIVLAILELLKQHERVLYVDIDIHHGDGVEEAFYATDRVMTVSFHKFGDYFPGTGHIQDIGYGSGKYYSLNVPLDDGIDDESYHLLFKPIMGKVMEIFRPGAVVLQCGADSLSGDRLGCFNLSIKGHAECVKFMRSFNVPLLLLGGGGYTIRNVARCWCYETGVALGVEVEDKMPEHEYYEYFGPDYTLHVAPSNMENKNSRQMLEEIRNDLLHNLSKLQHAPSVPFQERPPDTETPEVDEDQEDGDKRWDPDSDMDVDDDRKPIPSRVKREAVEPDTKDKDGLKGIMERGKGCEVEVDESGSTKVTGVNPVGVEEASVKMEEEGTNKGGAEQAFPPKT
notes: expressed transiently in tobacco leaf cells; not shown: C-terminal half of YFP (cYFP) from vector pBiFCt-2in1-NN

One data set concerns A. thaliana seeds. Put plainly: Germination assay on agar plates (seedlings with green cotyledons on day 6 after sowing). It is filed as in vivo, Arabidopsis thaliana. Conditions: for cumulative germination rate: increasing concentrations in agar, all lines (wildtype, hdc1-1, HDC1-OX), scored after 6 days. The protocol:
(§1) All experiments were carried out in controlled growth rooms at a temperature of 20-22° C. and a light intensity of 120-150 μmol PAR. Plants were grown either in long days (16 h light) or in short days (10 h light) as indicated in text and figure legends. Seeds of A. thaliana wildtype and transgenic lines were sterilized, stratified and germinated on soil or on agar plates. Agar plates contained half strength Murashige & Skoog (MS) media with 1% sucrose and 0.8% agar at pH 5.7. For germination assays media were supplemented with NaCl, ABA (cat. A1049,SIGMA), PAC (Fluka cat. 46046) or TSA (SIGMA cat.T8852) at the concentrations given in the figures. Germination rate was scored on day 6 after sowing by counting seedlings that had developed green cotyledons. Experiments with adult plants were carried out on soil or in hydroponic culture. For the latter, seeds were germinated on agar plates and 2-3 weeks old seedlings were placed perforated lids of black 1-litre plastic containers. The growth medium consisted in a minimal sufficient nutrient medium (Kellermeier et al., 2013, PLoS Genet. 7). For salt treatment NaCl powder was stirred directly into the growth container to obtain the desired concentration (as stated in the figures). Control media were stirred without adding NaCl. For controlled drought experiments, plants were grown on soil in pots according to a randomized design. Using previously reported methodology (Granier et al., 2006, New Phytologist 169:623-635; Skirycz et al., 2011, Nat. Biotech. 29:212-214), controlled watering was used to impose moderate water stress. After 14 days of plant growth in well-watered soil, watering was reduced so that the relative soil water content of the stressed plants was maintained at 50% of the normal watering regime. Control plants were watered normally.
Germinating seeds arrest growth and development if they encounter low water potentials in the environment (Finkelstein et al., 2008, In Annual Review of Plant Biology (Palo Alto: Annual Reviews), pp. 387-415). The post-imbibition response is mediated by ABA and can be mimicked by external application of ABA. […] To test a function of HDC1 in this process seeds of A. thaliana wildtype, hdc1-1, and HDC1-0X lines were imbibed to break dormancy, and subsequently plated out on agar plates containing different concentrations of NaCl, mannitol, ABA or PAC. A cumulative germination rate (encompassing all post-imbibition stages of seedling development) was scored as the number of seedlings that had developed cotyledons after 6 days.
To test whether histone deactylation was required for ABA-dependence of seed germination and for the effect of HDC1 on this process, we subjected germinating seeds to the histone deacetylase inhibitor trichostatin A (TSA).

The test system of another data set is A. thaliana plants. The protocol: as §1
The target in data set [1] is B2. Put plainly: ratiometric BiFC in tobacco leaf cells (nYFP-HDC1 with cYFP-HDA19). As for the experimental part:
(§2) Fluorescence in tobacco epidermal cells was assessed two days post infiltration using a CLSM-510-META-UV confocal microscope (Zeiss, Jena). For single protein localization GFP fluorescence was excited at 488 nm with light from an Argon laser and collected after passage through an NFT545 dichroic mirror with a 505 nm long pass filter. For co-localization experiments GFP fluorescence was collected with a 505-530 band pass filter. RFP fluorescence was excited at 543 nm with light from a Helium Neon laser and was collected after passage through an NFT545 dichroic mirror and a 560-615 nm band pass filter. YFP fluorescence was excited at 514 nm with light from Argon laser and was collected using lambda mode between 520-550 nm. Co-localization plane and line scans were evaluated using Zeiss LSM 510 AIM software (v3.2).
(§3) To investigate whether HDC1 is a member of HDAC protein complexes in plants we tested co-localization and direct interaction of HDC1 with known HDACs of A. thaliana. […] Direct interaction was investigated by bimolecular fluorescence complementation (BiFC). To avoid misinterpretation of background fluorescence we used a new ratiometric BiFC assay (Grefen and Blatt, 2012, supra) in which N- and C-terminal halves of yellow fluorescent protein (YFP), fused to HDC1 and HDA6/19 respectively, and a full-length RFP, are expressed from a single vector FIG. 4A). […]

The target of data set [2] is T1, cYFP-HDA6 (C-terminal half of YFP fused to A. thaliana HISTONE DEACETYLASE 6) (Arabidopsis thaliana, UniProt Q9FML2 1-471).
T1 construct: expressed transiently in tobacco leaf cells; not shown: C-terminal half of YFP (cYFP) from vector pBiFCt-2in1-NN
T1 sequence (looked up): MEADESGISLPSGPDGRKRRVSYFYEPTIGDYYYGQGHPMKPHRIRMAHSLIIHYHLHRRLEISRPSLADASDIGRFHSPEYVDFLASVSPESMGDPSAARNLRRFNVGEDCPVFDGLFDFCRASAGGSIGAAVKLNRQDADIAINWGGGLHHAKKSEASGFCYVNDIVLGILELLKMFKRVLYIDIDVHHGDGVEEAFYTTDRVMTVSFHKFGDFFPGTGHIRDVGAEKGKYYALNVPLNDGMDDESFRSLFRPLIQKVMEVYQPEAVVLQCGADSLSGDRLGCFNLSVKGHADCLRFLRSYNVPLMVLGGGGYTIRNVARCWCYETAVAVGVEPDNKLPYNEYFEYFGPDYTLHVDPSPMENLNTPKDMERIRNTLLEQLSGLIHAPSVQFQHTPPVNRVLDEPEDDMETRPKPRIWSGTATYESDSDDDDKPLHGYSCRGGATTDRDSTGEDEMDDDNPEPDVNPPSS
Description: ratiometric BiFC in tobacco leaf cells (nYFP-HDC1 with cYFP-HDA6). As for the experimental part:
as §2, §3

For data set [3], the target named is T2, cYFP-SIN3 (C-terminal half of YFP fused to A. thaliana Sin3-like protein 3) (Arabidopsis thaliana, UniProt O48686 1-1330).
T2 construct: negative control partner for nYFP-HDC1; also called AtSin3; SNL3; not shown: C-terminal half of YFP (cYFP) from vector pBiFCt-2in1-NN
Description: ratiometric BiFC in tobacco leaf cells (nYFP-HDC1 with cYFP-SIN3).

For data set [4], the target named is T3, nYFP-SIN3 (N-terminal half of YFP fused to A. thaliana Sin3-like protein 3) (Arabidopsis thaliana, UniProt O48686 1-1330).
T3 construct: positive control partner for cYFP-HDA19; also called AtSin3; SNL3; not shown: N-terminal half of YFP (nYFP) from vector pBiFCt-2in1-NN
Put plainly: ratiometric BiFC in tobacco leaf cells (nYFP-SIN3 with cYFP-HDA19).

The mark [5] stands for this setting: 150 mM NaCl for 24 hours, all lines.

T2 sequence (O48686 whole entry, the tested form may be a part): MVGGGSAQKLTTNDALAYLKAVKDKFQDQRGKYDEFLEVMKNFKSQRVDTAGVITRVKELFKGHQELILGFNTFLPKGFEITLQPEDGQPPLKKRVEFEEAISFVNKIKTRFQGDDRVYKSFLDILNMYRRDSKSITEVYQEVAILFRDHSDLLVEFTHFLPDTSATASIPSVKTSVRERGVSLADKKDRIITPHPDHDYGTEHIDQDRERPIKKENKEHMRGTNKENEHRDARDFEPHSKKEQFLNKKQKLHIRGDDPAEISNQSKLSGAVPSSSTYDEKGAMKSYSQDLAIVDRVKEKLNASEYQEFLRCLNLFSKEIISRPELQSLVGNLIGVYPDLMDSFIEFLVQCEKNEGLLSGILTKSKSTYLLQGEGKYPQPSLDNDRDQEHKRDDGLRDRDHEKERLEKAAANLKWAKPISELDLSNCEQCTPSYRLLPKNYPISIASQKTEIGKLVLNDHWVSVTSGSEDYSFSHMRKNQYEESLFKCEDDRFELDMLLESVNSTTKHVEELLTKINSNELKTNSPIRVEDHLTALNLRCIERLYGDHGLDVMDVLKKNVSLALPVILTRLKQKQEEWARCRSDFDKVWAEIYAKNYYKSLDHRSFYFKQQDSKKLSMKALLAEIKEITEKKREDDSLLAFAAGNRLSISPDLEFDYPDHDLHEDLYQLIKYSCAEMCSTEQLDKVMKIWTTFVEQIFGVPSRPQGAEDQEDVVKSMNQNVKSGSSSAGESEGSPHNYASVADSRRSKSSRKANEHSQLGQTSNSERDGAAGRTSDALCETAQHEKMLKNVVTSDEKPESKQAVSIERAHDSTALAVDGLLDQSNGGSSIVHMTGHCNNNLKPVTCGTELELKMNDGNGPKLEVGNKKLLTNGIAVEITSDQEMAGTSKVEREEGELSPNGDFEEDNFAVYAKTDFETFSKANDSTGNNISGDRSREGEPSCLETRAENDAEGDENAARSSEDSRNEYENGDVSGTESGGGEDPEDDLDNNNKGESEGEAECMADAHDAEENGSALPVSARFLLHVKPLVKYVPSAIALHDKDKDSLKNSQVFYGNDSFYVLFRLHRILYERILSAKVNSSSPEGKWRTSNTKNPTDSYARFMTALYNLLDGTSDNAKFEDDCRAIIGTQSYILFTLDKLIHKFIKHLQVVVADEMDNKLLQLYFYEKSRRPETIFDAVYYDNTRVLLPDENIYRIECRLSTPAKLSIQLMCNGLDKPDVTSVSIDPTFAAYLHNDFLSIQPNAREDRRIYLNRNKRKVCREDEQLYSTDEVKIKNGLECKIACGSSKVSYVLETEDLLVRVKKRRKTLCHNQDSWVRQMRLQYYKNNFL
T3 sequence (O48686 whole entry, the tested form may be a part): as above

Regarding `OC[C@@H](O)[C@@H](O)[C@H](O)[C@H](O)CO` [mannitol], the cumulative germination rate result in the data set on A. thaliana seeds is “decrease in germination rates”.

`[Cl-].[Na+]` [NaCl]: in the data set on A. thaliana plants (80 mM NaCl, 6 days), the chlorosis or desiccation result is recorded as “did not produce severe chlorosis or desiccation”. In addition, the growth entry in the data set with A. thaliana plants (80 mM NaCl, 6 days, all lines) was “slowed growth”. In the data set on A. thaliana plants (80 mM NaCl, after 6 days, all lines, from 92±1% without salt), the shoot water content is 86±1%. In the data set on A. thaliana plants (setting [5]), the “ABA biosynthesis (shoot ABA levels)” value is “efficiently induced”; the “transcript levels of ABA-receptor PYL4 and 'drought-repressed' gene DR4” value is “efficiently repressed”. Besides, the cumulative germination rate result in the data set on A. thaliana seeds is “decrease in germination rates”.

As to `CC(/C=C/C(=O)NO)=C\[C@@H](C)C(=O)c1ccc(N(C)C)cc1` [TSA, trichostatin A], the “effect on ABA-sensitivity of germination” value in the data set with A. thaliana seeds (HDC1-overexpressing lines) was “increased ABA-sensitivity”; with A. thaliana seeds (wildtype plants, 0.3 μM TSA at 0.2 μM ABA), “significant effect”; in the data set on A. thaliana seeds (wildtype plants, 3 μM TSA at 0.4 μM ABA), “significant effect”; with A. thaliana seeds (wildtype plants, dose-dependent), “increased the ABA-sensitivity”. In addition, the “effect on seed germination” value in the data set with A. thaliana seeds (low-micromolar TSA (0.3 or 3 μM), in the absence of ABA) was “no effect on seed germination”.

For the molecule `CC(C)(C)[C@@H](O)[C@@H](Cc1ccc(Cl)cc1)n1cncn1` (racemic) [PAC, paclobutrazol], in the data set with A. thaliana seeds, the cumulative germination rate result is listed as “decrease in germination rates”.

With `CC1=CC(=O)CC(C)(C)[C@@]1(O)/C=C/C(C)=C\C(=O)O` [ABA, Abscisic acid], the cumulative germination rate entry with A. thaliana seeds was “decrease in germination rates”.

B1: nYFP-HDC1 (N-terminal half of YFP fused to full length A. thaliana HISTONE DEACETYLASE COMPLEX 1) (other)
chain: MSGVPKRSHEEGVTHPSSSSSVAKYPHEDSGSYPKSPHQPVTPPPAQVHHNHQQPHQHPQSQSQSQPQPHLQALPHPHSHSHSHSPLAAAASASAPYEVESRTVVKVARSEPRDGERRSPLPLVYRSPSLPTTVSSSDPHLTHAPVPMEPRDGAKDGREIRVESRENRSDGREIYGETKREIQGPKGDRDVKFERSVDDFSGKGNTGSYTRNDGREMYGETKREIQGPKSDRDAKFERPGDDFSGKSNAGSYTRDTKFDRENQNYNEQKGEIKMEKEGHAHLAWKEQKDYHRGKRVAEGSTANVDPWVVSRGNPQGPTEVGPKDLSAPVEGSHLEGRETVGENKVDAKNEDRFKEKDKKRKELKHREWGDRDKDRNDRRVSVLVGSVMSEPKEIGREERESDRWERERMEQKDRERNKEKDKDHIKREPRTGAEKEISQNEKELGEASAKPSEQEYVAPEQKKQNEPDNCEKDERETKEKRRERDGDSEAERAEKRSRISEKESEDGCLEGEGATEREKDAFNYGVQQRKRALRPRGSPQTTNRDNVRSRSQDNEGVQGKSEVSIVVYKVGECMQELIKLWKEYDLSHPDKSGDFANNGPTLEVRIPAEHVTATNRQVRGGQLWGTDIYTDDSDLVAVLMHTGYCRPTASPPPPTMQELRTTIRVLPSQDYYTSKLRNNVRSRAWGAGIGCSYRVERCYILKKGGGTIELEPSLTHSSTVEPTLAPMAVERSMTTRAAASNALRQQRFVREVTIQYNLCNEPWIKYSISIVADKGLKKPLFTSARLKKGEVLYLETHSCRYELCFAGEKTIKAIQASQQQSSHEAMETDNNNNKSQNHLTNGDKTDSDNSLIDVFRWSRCKKPLPQKLMRSIGFPLPADHIEVLEENLDWEDVQWSQTGVWIAGKEYTLARVHFLSPN
notes: Expressed transiently in tobacco leaf cells from a 2-in-1 BiFC vector together with the cYFP partner and a full-length RFP; not shown: N-terminal half of YFP (nYFP) from vector pBiFCt-2in1-NN
With B1, the binding result in data set [1] is “binds”; in data set [2], “binds”; in data set [3], “no binding”.

On to B2, for which the binding result in data set [4] is reported as “binds”.
